{"source": "paper PMC7408547", "about": "“Bivalent Inhibitor with Selectivity for Trimeric MMP-9 Amplifies Neutrophil Chemotaxis and Enables Functional Studies on MMP-9 Proteoforms” (Cells, 2020)", "tested_on": "secretions of fMLF stimulated human granulocytes", "assay": "Gelatinolysis in secretions of fMLF stimulated human granulocytes", "type": "biochemical", "details": "neutrophil elastase inhibitor 20 µM; depending on the donor (n = 4)", "method": "To determine the inhibition of gelatinolytic activity, we used a previously optimized gelatin degradation assay. Activated MMP-9, activated MMP-2, neutrophil elastase or supernatants of stimulated neutrophils, were incubated with different concentrations of inhibitors and incubated for 30 min at 37 °C. Next, dye-quenched gelatin (DQ™-gelatin, Invitrogen, Carlsbad, CA, USA) was added at a final concentration of 2.5 µg/mL and the increase in fluorescence over time was measured with the CLARIOstar microplate reader (BMG Labtech, Ortenberg, Germany). For other MMPs, the OmniMMP substrate peptide (Mca-PLGL-Dpa-AR-NH2, cat. no. BML-P126-0001, Enzo Life Sciences, Farmingdale, NY, USA) was used at a final concentration of 2.5 µg/mL. For ADAM17 the fluorogenic peptide Mca-PLAQAV-Dpa-RSSSR-NH2 (ES003, R & D systems, Minneapolis, MO, USA) and for neutrophil elastase the fluorogenic substrate MeOSuc-AAPV-AMC (cat. no. 324740, Merck Millipore, Darmstadt, Germany) were used. Proteolytic activity was determined by linear regression of the fluorescence curve and the percentage inhibition was calculated through comparison with the positive control (no inhibitors). When testing supernatants from human neutrophils, the assay was performed in the presence of 20 µM neutrophil elastase inhibitor (Elastase Inhibitor IV, Calbiochem, Darmstadt, Germany).\nNeutrophils were isolated from fresh blood from healthy donors, via density gradient centrifugation as described. To obtain neutrophil degranulate, neutrophils were suspended in degranulation buffer (120 mM NaCl, 15 mM CaCl2, 20 mM Tris/HCl pH 7.5) at a concentration of 10^7 cells/mL and degranulation was induced by incubating neutrophils with N-formyl-methionyl-leucyl-phenylalanine (fMLF) (final concentration 0.5 µM) for 20 min at 37 °C as previously described. Next, the supernatant was collected by centrifugation. For fresh blood donations, all subjects gave written informed consent in accordance with the Declaration of Helsinki."}
{"smiles": "Cc1cccc(C(=O)n2nc(C#N)c3ccccc32)c1", "note": "[neutrophil elastase inhibitor, reference compound]", "values": [{"measurement": "percentage of gelatinolytic activity inhibited", "result": "84–97%"}]}
